Results as given in US20130158098A1, “Alkenyl Substituted Cycloaliphatic Compounds as Chemical Inducers of Proximity” (priority 2010, published 2013).
Entries after “also recorded” stand apart in the source; their conditions may differ.

Experiments:
[1] = system: ERK1/2 phosphorylation (SOS-PYLcs and myr-ABIcs); experiment: SOS activation: ABA-induced ERK phosphorylation by SOS localization; type: cell-based, human; settings: cells expressing SOS-PYLcs and myr-ABIcs; 250 μM ABA
Description: Six-well plates of 293T cells containing 0.5×10^6 cells per well were transfected with 3 μg of total DNA using FuGENE HD (Roche). Cells were transfected with expression plasmids encoding myr-ABI, SOS-PYL, SOS-FKBP, myr-SOS, and an expression vector control, pUC19. ABA (250 μM) was added at 3, 6, 12, and 24 hours before harvesting the cells. Cells were lysed in 1× lysis buffer [50 mM Tris-HCl (pH 7.5), 300 mM NaCl, 1% NP-40, 0.1% SDS, 0.5% sodium deoxycholate, 20 mM NaF, 1 mM Na3VO4, 1 mM phenylmethylsulfonyl fluoride (PMSF), and 1× protease inhibitor mixture (Calbiochem)] for 20 min at 4° C. After centrifugation at 14,000 g for 15 min, proteins were separated on 4 to 12% bis-tris NuPAGE gels (Invitrogen) and transferred to polyvinylidene difluoride membranes. […] Infrared dye 800 and 680 anti-rabbit or anti-mouse secondary antibodies were incubated at room temperature for 1 hour in 10% BSA-PBST and detected with a LI-COR/Odyssey scanner. […]

[2] = rat; cited from earlier work
[3] = ABA stability in human serum (luciferase biofunctional readout); type: in vitro ADME
Description: FIG. 3C provides the results of a stability test of ABA in cell culture conditions. CHO cells were pre-transfected with the activation and reporter DNA constructs for 24 hours. 100 μM ABA was then added to the culture and cells were assayed for luciferase activity after 10 hours. During the 10-hour incubation, the cell culture media were replaced with media containing freshly added ABA every 1, 2.5, 5 hour or no replacement. FIG. 4A illustrates the results of an experiment in which human serum pre-incubated ABA was used to induce luciferase transcription. ABA was incubated with pure non-heat inactivated human serum at 37° C. for indicated time period. ABA containing serum was then added to the CHO cell culture to a final 100 μM ABA concentration for 25 hours and cells were assayed for luciferase activity. The cells were pre-transfected with the activation and reporter DNA constructs for 24 hours. FIG. 4B illustrates the results of an experiment in which fetal bovine serum pre-incubated ABA was used to induce luciferase transcription. ABA was incubated with pure heat inactivated fetal bovine serum at 37° C. for indicated time period. ABA containing serum was then added to the CHO cell culture to a final 100 μM ABA concentration for 10 hours and cells were assayed for luciferase activity. The cells were pre-transfected with the activation and reporter DNA constructs for 24 hours.
In plants, ABA had been reported to be unstable due to active enzymatic degradation (Cutler, A. J. and Krochko, J. E. (1999) Formation and breakdown of ABA. Trends Plant Sci. 4, 472-478). […] The activity of residual ABA in the serum was measured by its ability to induce the transcriptional activation of the luciferase reporter in cells expressing the ABA-activator cassette. […] Using this assay, the bioavailability in mice was evaluated. […]

[4] = system: T cells isolated from spleens of C57BL/6J mice; experiment: Lymphocyte proliferation assay; type: cell-based, mouse; settings: anti-CD3 and anti-CD28 stimulation, 72 hours
Description: Naïve T cells were isolated from spleens of C57BL/6J mice with MACS T cell isolation kit (Miltenyi Biotec). Isolated T cells were stimulated for 72 hours at 37° C. with plate-bound monoclonal antibodies against CD3 (10 μg/ml) and CD28 (2 μg/ml) before cell count measurements.

## CC1=CC(=O)CC(C)(C)C1(O)/C=C/C(C)=C/C(=O)O (stereo not drawn) [ABA, abscisic acid]
[1]
  phosphorylation of ERK: induced the phosphorylation of ERK
[2]
  acute oral median lethal dose (LD50): > 5000 mg/kg
[3]; pure human serum, 37° C., up to 48 hours
  reduction in ability to induce transcription of luciferase: no significant reduction
[3]; pure non-heat inactivated human serum, 37° C.
  time ABA is stable in human serum: at least 46 hours
[3]; serum, over 48 hours
  stability in serum: stable
[4]
  effect upon proliferation induced by antigen receptor signaling: No statistically significant effect; also recorded: did not have an adverse effect
